Literature values in US20070044813A1, “Use of snuff for treatment of house dust mite allergy and/or cigarette smoke allergy” (priority 2005, published 2007).
Structures can show the parent of a compound that is named as a salt.

Test system: symptoms of house dust mite allergy and cigarette smoke allergy
Conditions: conventional medicaments; control the symptoms only partly

SMILES	alleviation of the symptoms
CC(C)(C(=O)O)c1ccc(C(O)CCCN2CCC(C(O)(c3ccccc3)c3ccccc3)CC2)cc1 (centres unmarked) [fexofenadine hydrochloride]	around 40%
Clc1ccc2c(c1)CCc1cccnc1C2=C1CCNCC1 [desloratadine]	around 40%
